According to patent publication US11999769B2, “Method for isolating and purifying bacteriocin against drug-resistant Staphylococcus aureus” (Zhejiang Gongshang University, priority 2022, dated 2024):

Test system: S. aureus D48
Experiment: effect on membrane potential difference, DiSC2(5) fluorescent probe
Format: cell-based, Staphylococcus aureus
Conditions: bacteriocin 1×MIC; Triton X-100 5% solution as positive control; scanning time 15 min
Description: S. aureus D48 cells were prepared by the same method as that in Example 3, washed with a 5 mM fluorescent leakage buffer and resuspended to 5 mL to obtain a bacterial suspension. A fluorescent probe DiSC2(5) was set to have an excitation wavelength of 650 nm and an emission wavelength of 670 nm. The scanning interval was set as Ex slit: 5 nm, Em slit: 5 nm, and the scanning time was 15 min. 2 mL of the fluorescent leakage buffer, 20 μL of the bacterial suspension, and 3 μL of 0.1 mM probe DiSC2(5) were added to a fluorescence cuvette, and mixed uniformly for detection. After the fluorescence response value became stable, the L. rhamnosus ZFM216 bacteriocin solution with a final concentration of 1×MIC was quickly added in the experimental group, and the same volume of fluorescence leakage buffer and 5% Triton X-100 solution were added to the control groups respectively.
Note: The preparation method of the fluorescent leakage buffer is: 0.7455 g of potassium chloride and 0.2463 g of a magnesium sulfate heptahydrate solution are accurately weighed, 22.5 mL of a 20% glucose solution and 10 mL of a phosphate buffer solution are measured, the volume is diluted to 100 mL with ultrapure water, the pH is adjusted to 7, and the prepared fluorescent leakage buffer is stored at 4° C. for later use.

Triton X-100 [TritonX-100]
fluorescence intensity of S. aureus D48 bacterial suspension (DiSC2(5)): rapidly increased to the highest value
